According to patent US20230234931A1, “NON-STEROIDAL ANTI-INFLAMMATORY COMPOUNDS” (University of Houston System, priority 2022, published 2023):

Tests used:
COX-2-10aa-mPGES-1 = molecular target: T1, COX-2-10aa-mPGES-1 (Homo sapiens, UniProt O14684+P35354); test: Inhibition of PGE2 production in HEK293 cells expressing Enzymelink COX-2-10aa-mPGES-1; assay type: cell-based; details: HEK-293 cells, 1, 3 and 10 μM, arachidonic acid 0.5 μM, PGE2 by ELISA, compared with NS-398 (FIG. 9)
T1 construct: COX-2 (fusion partner); gene PTGS2, human entry P35354 by own knowledge; expressed in transfected cells; host or cells: HEK293
T1 sequence (P35354+O14684 with tags, fused parts or gaps): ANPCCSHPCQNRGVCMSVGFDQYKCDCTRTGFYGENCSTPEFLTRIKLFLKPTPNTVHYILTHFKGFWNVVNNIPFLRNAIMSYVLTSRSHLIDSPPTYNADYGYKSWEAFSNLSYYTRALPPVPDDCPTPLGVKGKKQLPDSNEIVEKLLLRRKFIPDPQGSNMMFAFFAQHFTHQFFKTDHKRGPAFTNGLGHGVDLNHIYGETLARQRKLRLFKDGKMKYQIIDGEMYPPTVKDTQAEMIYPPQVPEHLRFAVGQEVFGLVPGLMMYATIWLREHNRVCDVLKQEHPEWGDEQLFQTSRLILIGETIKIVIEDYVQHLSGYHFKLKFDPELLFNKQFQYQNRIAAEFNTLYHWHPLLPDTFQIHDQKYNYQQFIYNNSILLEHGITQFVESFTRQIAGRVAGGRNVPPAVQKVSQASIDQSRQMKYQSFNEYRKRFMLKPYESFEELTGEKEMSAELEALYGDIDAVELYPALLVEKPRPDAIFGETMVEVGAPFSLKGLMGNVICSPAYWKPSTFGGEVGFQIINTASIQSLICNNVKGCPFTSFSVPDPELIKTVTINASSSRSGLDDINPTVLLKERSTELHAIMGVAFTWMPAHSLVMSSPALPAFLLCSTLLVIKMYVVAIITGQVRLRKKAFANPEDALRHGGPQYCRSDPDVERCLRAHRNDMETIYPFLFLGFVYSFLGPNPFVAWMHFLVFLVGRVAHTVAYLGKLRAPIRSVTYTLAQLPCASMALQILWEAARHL
Method: FIG. 9. Dose response curves for the effects of the synthesized derivatives on mPGES-1-synthesized inflammatory PGE2, compared with COX-2 inhibitor. HEK-293 cells expressing inflammatory PGE-producing Enzymelink, COX-2-10aa-mPGES-1 described previously (11) were treated with increasing concentrations (1 μM, 3 μM, and 10 μM), of the derivatives. Arachidonic acid (0.5 μM) was added to initiate the biosynthesis of PGE2 through COX-2 and mPGES-1 catalysis (11). The produced PGE2 was detected by ELISA (11). COX-2 inhibitor, NS-398 was used as positive control. An unrelated chemical compound (#6) was used as a negative control.
COX linked PG synthase cDNAs of the hybrid enzyme COX-2 C-terminus was linked to the PGES N-terminus with 10 amino acids (COX-2-10aa-PGES) was constructed by a polymerase chain reaction (PCR) cloning approach. The resultant cDNA was sub-cloned into pcDNATM3.1 vectors containing a cytomegalovirus immediate-early promoter (11, 16).
The recombinant enzyme was expressed in HEK293 cells. […] The enzyme expressions were determined by a Western blot analysis. […]
The effect of compounds that inhibited PGE2 production were determined by HPLC. […]
The inhibitory effect on PGE2 production by mPGES-1 was determined by using previously developed HEK293 cells expressing our engineered Enzymelink, COX-2-10aa-mPGES-1.

PC-3 cells = test: Cancer cell PC-3 migration assay (gap size); assay type: cell-based; details: after 39 hours of culture, compared with NS-398
Method: FIG. 10A-C. Anti-inflammatory and anti-cancer activities in cell cultural conditions. PC-3 migration assay treated with the lead compound #10. FIG. 10A The representative images of the PC-3 migration at 0 hour (left) and 39 hours (right) with DMSO, NS-398, and #10. FIG. 10B The time-course gap size of the PC-3 migration. The gap size was obtained using NIS-element software (NIKON). n=6. FIG. 10C Quantitative and significant analyses.
One day before the experiment, about 8.4×10^6 of PC-3 cells were cultured in 6-well plates with 2 mL of growth medium. A marker line was drawn on the outside plates to identify viewing spots. The medium was pre-warmed, and each treatment (DMSO, NS-398, and #10) was mixed with the medium. The cells were washed with PBS and replaced with 1.5 mL of medium containing a treatment, and observed at 0, 15, 24, and 39-hour points. NIS-element AR 3.0 (Nikon Instruments Inc.) software was used to take images at different time points with 10× magnification, and to measure gap sizes.
Inflammation is a factor that stimulates cell migration and is associated with a wide range of ailments including cancer (29). Inflammatory PGE2 produced by mPGES-1 has been reported to be directly associated with cancer cell migration and development (30-33). […] After 39 hours of culture, the gaps were measured (FIG. 10A) and quantified (FIG. 10B and FIG. 10C). […]

Nc1ccc2oc(-c3ccc(C(F)(F)F)cc3)nc2c1 [3-F, 2-[4-(trifluoromethyl)phenyl]-1,3-benzoxazol-5-amine]
inhibition of inflammatory PGE2 production (COX-2-10aa-mPGES-1): able to inhibit inflammatory PGE2 production with very similar dose-response concentrations of the COX-2 inhibitor
inhibition of cancer cell migration within the gaps (PC-3 cells): very effective inhibition of cancer cell migration

2-[4-(trimethyl) phenyl]-1,3-benzoxazol-5-amine [3-Methyl]
inhibition of inflammatory PGE2 production (COX-2-10aa-mPGES-1): able to inhibit inflammatory PGE2 production with very similar dose-response concentrations of the COX-2 inhibitor
inhibition of cancer cell migration within the gaps (PC-3 cells): very effective inhibition of cancer cell migration
